{
  "source": "PubChem BioAssay AID1259407",
  "about": "(Chemical Carcinogenesis Research Information System (CCRIS), 2018)",
  "system": "CCRIS mutagenicity, Ames/micronucleus/aberration tests",
  "assay": "CCRIS mutagenicity studies",
  "key": {"[1]": {"settings": "Test System: AMES SALMONELLA TYPHIMURIUM, Strain/Indicator: TA98, Metabolic Activation: NONE, Method: STANDARD PLATE"}, "[2]": {"settings": "Test System: AMES SALMONELLA TYPHIMURIUM, Strain/Indicator: TA100, Metabolic Activation: NONE, Method: STANDARD PLATE"}},
  "note": "Calls of active or inactive are those of the source. How the calls were made is not given here.",
  "data": [
    {"compound": "C=CC(=O)OCC(C)(C)COC(=O)C=C", "values": [
      {"measurement": "mutagenic call", "setting": "[1]", "value": "inactive; negative"},
      {"measurement": "mutagenic call", "setting": "Test System: AMES SALMONELLA TYPHIMURIUM, Strain/Indicator: TA98, Metabolic Activation: RAT, LIVER, S-9, AROCLOR 1254, Method: STANDARD PLATE", "value": "inactive; negative"},
      {"measurement": "mutagenic call", "setting": "Test System: AMES SALMONELLA TYPHIMURIUM, Strain/Indicator: TA98, Metabolic Activation: RAT, LIVER, S-9, SODIUM PHENOBARBITAL, Method: STANDARD PLATE", "value": "inactive; negative"},
      {"measurement": "mutagenic call", "setting": "[2]", "value": "inactive; negative"},
      {"measurement": "mutagenic call", "setting": "Test System: AMES SALMONELLA TYPHIMURIUM, Strain/Indicator: TA100, Metabolic Activation: RAT, LIVER, S-9, AROCLOR 1254, Method: STANDARD PLATE", "value": "inactive; negative"},
      {"measurement": "mutagenic call", "setting": "Test System: AMES SALMONELLA TYPHIMURIUM, Strain/Indicator: TA100, Metabolic Activation: RAT, LIVER, S-9, SODIUM PHENOBARBITAL, Method: STANDARD PLATE", "value": "inactive; negative"},
      {"measurement": "mutagenic call", "setting": "Test System: AMES SALMONELLA TYPHIMURIUM, Strain/Indicator: TA1535, Metabolic Activation: NONE, Method: STANDARD PLATE", "value": "inactive; negative"},
      {"measurement": "mutagenic call", "setting": "Test System: AMES SALMONELLA TYPHIMURIUM, Strain/Indicator: TA1535, Metabolic Activation: RAT, LIVER, S-9, AROCLOR 1254, Method: STANDARD PLATE", "value": "inactive; negative"},
      {"measurement": "mutagenic call", "setting": "Test System: AMES SALMONELLA TYPHIMURIUM, Strain/Indicator: TA1535, Metabolic Activation: RAT, LIVER, S-9, SODIUM PHENOBARBITAL, Method: STANDARD PLATE", "value": "inactive; negative"},
      {"measurement": "mutagenic call", "setting": "Test System: AMES SALMONELLA TYPHIMURIUM, Strain/Indicator: TA1537, Metabolic Activation: NONE, Method: STANDARD PLATE", "value": "inactive; negative"},
      {"measurement": "mutagenic call", "setting": "Test System: AMES SALMONELLA TYPHIMURIUM, Strain/Indicator: TA1537, Metabolic Activation: RAT, LIVER, S-9, AROCLOR 1254, Method: STANDARD PLATE", "value": "inactive; negative"},
      {"measurement": "mutagenic call", "setting": "Test System: AMES SALMONELLA TYPHIMURIUM, Strain/Indicator: TA1537, Metabolic Activation: RAT, LIVER, S-9, SODIUM PHENOBARBITAL, Method: STANDARD PLATE", "value": "inactive; negative"},
      {"measurement": "mutagenic call", "setting": "Test System: AMES SALMONELLA TYPHIMURIUM, Strain/Indicator: TA1538, Metabolic Activation: NONE, Method: STANDARD PLATE", "value": "inactive; negative"},
      {"measurement": "mutagenic call", "setting": "Test System: AMES SALMONELLA TYPHIMURIUM, Strain/Indicator: TA1538, Metabolic Activation: RAT, LIVER, S-9, AROCLOR 1254, Method: STANDARD PLATE", "value": "inactive; negative"},
      {"measurement": "mutagenic call", "setting": "Test System: AMES SALMONELLA TYPHIMURIUM, Strain/Indicator: TA1538, Metabolic Activation: RAT, LIVER, S-9, SODIUM PHENOBARBITAL, Method: STANDARD PLATE", "value": "inactive; negative"}
    ]},
    {"compound": "CC(=O)OCc1c2ccccc2c(C)c2ccccc12", "values": [
      {"measurement": "mutagenic call", "setting": "[1]", "value": "active; positive"},
      {"measurement": "mutagenic call", "setting": "[2]", "value": "active; positive"}
    ]},
    {"compound": "O[C@@H]1[C@@H]2O[C@@H]2C=C[C@H]1O", "values": [
      {"measurement": "mutagenic call", "setting": "Test System: AMES SALMONELLA TYPHIMURIUM, Strain/Indicator: TA97, Metabolic Activation: NONE, Method: PREINCUBATION", "value": "inactive; negative"},
      {"measurement": "mutagenic call", "setting": "Test System: AMES SALMONELLA TYPHIMURIUM, Strain/Indicator: TA98, Metabolic Activation: NONE, Method: PREINCUBATION", "value": "inactive; negative"},
      {"measurement": "mutagenic call", "setting": "Test System: AMES SALMONELLA TYPHIMURIUM, Strain/Indicator: TA1535, Metabolic Activation: NONE, Method: PREINCUBATION", "value": "active; positive"}
    ]},
    {"compound": "CCCCCCCCCc1ccccc1Oc1ccccc1CCCCCCCCC", "values": [
      {"measurement": "mutagenic call", "setting": "Test System: AMES SALMONELLA TYPHIMURIUM, Strain/Indicator: TA97, Metabolic Activation: NONE, Method: STANDARD PLATE", "value": "inactive; negative"},
      {"measurement": "mutagenic call", "setting": "Test System: AMES SALMONELLA TYPHIMURIUM, Strain/Indicator: TA97, Metabolic Activation: S-9, Method: STANDARD PLATE", "value": "inactive; negative"},
      {"measurement": "mutagenic call", "setting": "[1]", "value": "inactive; negative"},
      {"measurement": "mutagenic call", "setting": "Test System: AMES SALMONELLA TYPHIMURIUM, Strain/Indicator: TA98, Metabolic Activation: S-9, Method: STANDARD PLATE", "value": "inactive; negative"},
      {"measurement": "mutagenic call", "setting": "[2]", "value": "inactive; negative"},
      {"measurement": "mutagenic call", "setting": "Test System: AMES SALMONELLA TYPHIMURIUM, Strain/Indicator: TA100, Metabolic Activation: S-9, Method: STANDARD PLATE", "value": "inactive; negative"},
      {"measurement": "mutagenic call", "setting": "Test System: AMES SALMONELLA TYPHIMURIUM, Strain/Indicator: TA102, Metabolic Activation: NONE, Method: STANDARD PLATE", "value": "inactive; negative"},
      {"measurement": "mutagenic call", "setting": "Test System: AMES SALMONELLA TYPHIMURIUM, Strain/Indicator: TA102, Metabolic Activation: S-9, Method: STANDARD PLATE", "value": "inactive; negative"},
      {"measurement": "mutagenic call", "setting": "Test System: E.COLI, Strain/Indicator: WP2 (PKM101), Metabolic Activation: NONE, Method: STANDARD PLATE", "value": "inactive; negative"},
      {"measurement": "mutagenic call", "setting": "Test System: E.COLI, Strain/Indicator: WP2 (PKM101), Metabolic Activation: S-9, Method: STANDARD PLATE", "value": "inactive; negative"}
    ]}
  ]
}
